{
  "source": "patent US20230330251A1",
  "about": "“METHODS FOR TREATING CANCERS WITH ANTIBODY DRUG CONJUGATES (ADC) THAT BIND TO 191P4D12 PROTEINS” (AGENSYS, INC., priority 2020, published 2023)",
  "key": {"[1]": {"system": "patients with previously treated locally advanced or metastatic urothelial carcinoma (la/mUC) with poor prognostic factors", "test": "EV-301 subgroup analyses of OS, PFS and ORR incl. hard-to-treat subgroups (age ≥65 years, liver metastasis, primary upper tract disease, CPI nonresponse)", "format": "in vivo, human", "conditions": "for ORR, EV vs SC Absolute Difference / Overall response rate (ORR), % / Overall response rate (ORR), n/N: Response-Evaluable Population", "description": "Using FAS, the analysis for OS, PFS1 and ORR were repeated by ECOG PS (0 vs 1), regions of the world, and liver metastasis respectively.\nIn addition, subgroup analyses were conducted for selected endpoints to determine whether the treatment effect is consistent.\nSubgroup analyses were prespecified for the primary endpoint of OS and secondary endpoints of investigator-assessed progression-free survival (PFS) and overall response rate (ORR) per RECIST v1.1. Kaplan-Meier analyses compared OS and PFS between treatments for selected hard-to-treat subgroups as follows: age ≥65 years, presence of liver metastasis, primary upper tract disease, and checkpoint inhibitor (CPI) nonresponse. ORR and safety were also evaluated within subgroups. The Cox proportional hazards model was used to estimate hazard ratios. The Cochran-Mantel-Haenszel test was used to compare response and disease control rates between groups."}, "[2]": {"system": "metastatic urothelial cancer patients and non-metastatic urothelial cancer patients", "test": "Phase 1 study of EV, escalating dose levels 0.5-1.25 mg/kg: safety, DLT, MTD", "format": "in vivo, human", "description": "EV will be administered at a dose of 1.25 mg/kg as an intravenous infusion over approximately 30 minutes on Days 1, 8, and 15 of each 28-day cycle. […] A maximum tolerated dose (MTD) was not reached in this study. At the 1 mg/kg dose level, 2 dose- limiting toxicities (DLTs) were observed: Grade 3 proctalgia (later changed to grade 2 by the investigator) thought related to radiation recall and Grade 4 hyperuricemia without clinical sequelae.\nMoreover, dose reductions due to AEs were more frequent for the 1.25 mg/kg vs lower dose levels.\nIn the phase 1 study, rash and similar dermatologic AE's were common among patients treated with EV, and were seen more frequently at the highest dose. Although the exact etiology of dermatologic toxicities associated with EV is unclear at this time, due to the expression of nectin-4 in the skin, rash maybe an on target toxicity. The most common type of dermatological AE reported in ASG-22CE-13-2 was maculo-papular rash, rash, skin exfoliation, and skin pigmentation disorder. Most occurred early on (during cycle 1), and some were associated with pruritus. Mild rash due to EV should be treated using local supportive care as needed. Topical corticosteroids have been used along with antihistamines for pruritus as needed."}},
  "data": [
    {"substance": "enfortumab vedotin", "values": [
      {"measurement": "Median OS", "setting": "[1]; Age ≥65 yrs", "result": 14.32, "unit": "mo"},
      {"measurement": "Median PFS", "setting": "[1]; Age ≥65 yrs", "result": 5.65, "unit": "mo"},
      {"measurement": "OS, EV vs SC HR", "setting": "[1]; Age ≥65 yrs", "result": 0.745},
      {"measurement": "Overall survival (OS) Events, %", "setting": "[1]; Age ≥65 yrs", "result": "(44) %"},
      {"measurement": "Overall survival (OS) Events, n/N", "setting": "[1]; Age ≥65 yrs", "result": "85/193"},
      {"measurement": "PFS, EV vs SC HR", "setting": "[1]; Age ≥65 yrs", "result": 0.616},
      {"measurement": "Progression-free survival (PFS) Events, %", "setting": "[1]; Age ≥65 yrs", "result": "(65) %"},
      {"measurement": "Progression-free survival (PFS) Events, n/N", "setting": "[1]; Age ≥65 yrs", "result": "126/193"},
      {"measurement": "ORR, EV vs SC Absolute Difference", "setting": "[1]; Age ≥65 yrs", "result": 20.9, "unit": "%"},
      {"measurement": "Overall response rate (ORR), %", "setting": "[1]; Age ≥65 yrs", "result": 40.8, "unit": "%"},
      {"measurement": "Overall response rate (ORR), n/N", "setting": "[1]; Age ≥65 yrs", "result": "75/184"},
      {"measurement": "Median OS", "setting": "[1]; CPI non-responder", "result": 11.63, "unit": "mo"},
      {"measurement": "Median PFS", "setting": "[1]; CPI non-responder", "result": 5.42, "unit": "mo"},
      {"measurement": "OS, EV vs SC HR", "setting": "[1]; CPI non-responder", "result": 0.757},
      {"measurement": "Overall survival (OS) Events, %", "setting": "[1]; CPI non-responder", "result": "(48) %"},
      {"measurement": "Overall survival (OS) Events, n/N", "setting": "[1]; CPI non-responder", "result": "100/207"},
      {"measurement": "PFS, EV vs SC HR", "setting": "[1]; CPI non-responder", "result": 0.697},
      {"measurement": "Progression-free survival (PFS) Events, %", "setting": "[1]; CPI non-responder", "result": "(71) %"},
      {"measurement": "Progression-free survival (PFS) Events, n/N", "setting": "[1]; CPI non-responder", "result": "146/207"},
      {"measurement": "ORR, EV vs SC Absolute Difference", "setting": "[1]; CPI non-responder", "result": 22.3, "unit": "%"},
      {"measurement": "Overall response rate (ORR), %", "setting": "[1]; CPI non-responder", "result": 39.7, "unit": "%"},
      {"measurement": "Overall response rate (ORR), n/N", "setting": "[1]; CPI non-responder", "result": "79/199"},
      {"measurement": "Median OS", "setting": "[1]; Presence of Liver metastasis", "result": 9.63, "unit": "mo"},
      {"measurement": "Median PFS", "setting": "[1]; Presence of Liver metastasis", "result": 4.14, "unit": "mo"},
      {"measurement": "OS, EV vs SC HR", "setting": "[1]; Presence of Liver metastasis", "result": 0.660},
      {"measurement": "Overall survival (OS) Events, %", "setting": "[1]; Presence of Liver metastasis", "result": "(57) %"},
      {"measurement": "Overall survival (OS) Events, n/N", "setting": "[1]; Presence of Liver metastasis", "result": "53/93"},
      {"measurement": "PFS, EV vs SC HR", "setting": "[1]; Presence of Liver metastasis", "result": 0.597},
      {"measurement": "Progression-free survival (PFS) Events, %", "setting": "[1]; Presence of Liver metastasis", "result": "(76) %"},
      {"measurement": "Progression-free survival (PFS) Events, n/N", "setting": "[1]; Presence of Liver metastasis", "result": "71/93"},
      {"measurement": "ORR, EV vs SC Absolute Difference", "setting": "[1]; Presence of Liver metastasis", "result": 24.7, "unit": "%"},
      {"measurement": "Overall response rate (ORR), %", "setting": "[1]; Presence of Liver metastasis", "result": 35.5, "unit": "%"},
      {"measurement": "Overall response rate (ORR), n/N", "setting": "[1]; Presence of Liver metastasis", "result": "33/93"},
      {"measurement": "Median OS", "setting": "[1]; Primary upper tract disease", "result": 12.62, "unit": "mo"},
      {"measurement": "Median PFS", "setting": "[1]; Primary upper tract disease", "result": 5.62, "unit": "mo"},
      {"measurement": "OS, EV vs SC HR", "setting": "[1]; Primary upper tract disease", "result": 0.848},
      {"measurement": "Overall survival (OS) Events, %", "setting": "[1]; Primary upper tract disease", "result": "(45) %"},
      {"measurement": "Overall survival (OS) Events, n/N", "setting": "[1]; Primary upper tract disease", "result": "44/98"},
      {"measurement": "PFS, EV vs SC HR", "setting": "[1]; Primary upper tract disease", "result": 0.716},
      {"measurement": "Progression-free survival (PFS) Events, %", "setting": "[1]; Primary upper tract disease", "result": "(64) %"},
      {"measurement": "Progression-free survival (PFS) Events, n/N", "setting": "[1]; Primary upper tract disease", "result": "63/98"},
      {"measurement": "ORR, EV vs SC Absolute Difference", "setting": "[1]; Primary upper tract disease", "result": 24.8, "unit": "%"},
      {"measurement": "Overall response rate (ORR), %", "setting": "[1]; Primary upper tract disease", "result": 43.9, "unit": "%"},
      {"measurement": "Overall response rate (ORR), n/N", "setting": "[1]; Primary upper tract disease", "result": "43/98"},
      {"measurement": "ORR in hard-to-treat subgroups, EV compared to SC", "setting": "[1]; across all subgroups", "result": "higher"},
      {"measurement": "PFS in hard-to-treat subgroups, EV compared to SC", "setting": "[1]; across all subgroups", "result": "longer"},
      {"measurement": "OS in hard-to-treat subgroups, EV vs SC", "setting": "[1]; liver metastasis, CPI nonresponsive, primary upper tract disease, poor prognostic factors, listed as EV", "result": "consistently longer"},
      {"measurement": "progression-free survival benefit in subgroup analyses", "setting": "[1]; prespecified key subgroups, intention-to-treat population", "result": "present across multiple subgroups"},
      {"measurement": "dose-limiting toxicities (DLTs) observed", "setting": "[2]; 1 mg/kg dose level, Grade 3 proctalgia, Grade 4 hyperuricemia", "result": 2},
      {"measurement": "DLT", "setting": "[2]; 1.25 mg/kg", "result": "No DLT was observed"},
      {"measurement": "dose reductions due to AEs", "setting": "[2]; 1.25 mg/kg vs lower dose levels", "result": "more frequent"},
      {"measurement": "frequency of all TEAEs, AEs leading to withdrawal, and Grade 3-4 TEAEs", "setting": "[2]; across dose levels", "result": "comparable across all dose levels"},
      {"measurement": "Incidence of the most frequent drug-related AEs, such as diarrhea and rash", "setting": "[2]; by dose level, primarily Grades 1-2", "result": "increased with increasing dose levels"},
      {"measurement": "maximum tolerated dose (MTD)", "setting": "[2]; dose levels 0.5, 0.75, 1 and 1.25 mg/kg", "result": "not reached"},
      {"measurement": "rash and similar dermatologic AE's", "setting": "[2]; phase 1 study, more frequent at the highest dose", "result": "common"}
    ]}
  ]
}
